The assay addresses Cathepsin S (human recombinant CTSS) (Homo sapiens, UniProt P25774). Kind of assay: fluorescence CTSS activity assay kit with recombinant enzyme. It counts as biochemical.

SMILES strings stand for the structures.

Cathepsin S (human recombinant CTSS), sequence (P25774 115-331): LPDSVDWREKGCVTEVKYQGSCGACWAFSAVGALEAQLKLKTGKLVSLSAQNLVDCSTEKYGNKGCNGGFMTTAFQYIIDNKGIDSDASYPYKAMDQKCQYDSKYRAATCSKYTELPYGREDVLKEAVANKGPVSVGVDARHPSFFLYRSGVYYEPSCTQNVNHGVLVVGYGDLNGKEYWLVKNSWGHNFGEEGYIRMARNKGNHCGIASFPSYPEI

On to `CC(C)C[C@H](NC(=O)[C@H](Cc1ccccc1)NC(=O)OCc1ccccc1)C(=O)C=O` [Z-FL, Z-FL-COCHO], for which the IC50 (in general, the midpoint of a concentration-inhibition curve) is 172 ± 32.7 nM. With `CC(C)C[C@H](NC(=O)[C@H](Cc1ccccc1)NC(=O)OCc1ccccc1)C(=O)C=O` [Z-FL-hydrate, Z-FL-COCHO-hydrate] the figure was 262 ± 59.3 nM.

Source of the values: publication PMC6606642, “Inhibition of Cathepsin S Reduces Lacrimal Gland Inflammation and Increases Tear Flow in a Mouse Model of Sjögren’s Syndrome” (Scientific Reports, 2019).
